# From publication PMC8876855, “AsKC11, a Kunitz Peptide from Anemonia sulcata, Is a Novel Activator of G Protein-Coupled Inward-Rectifier Potassium Channels” (Marine Drugs, 2022)
# Bridges are numbered along the chain shown (N, C = ends). Where no end group is shown, it is not given here.
# B1: AsKC11 (protein)
# chain: INKDCLLPKVVGFCRARFPRYYYNSSSRRCEKFIYGGCGGNANNFSSYYECHIKCFGPR
# What was measured:
# GIRK1/2 channels = conditions: cited from earlier work
# From the text: (§1) To better understand the potential of activating neuronal GIRK1/2 channels for therapeutic intervention, selective and potent activators have been developed for GIRK channels. […] These activators are weak and nonspecific since they exert effects in the millimolar range and target several types of ion channels at the same range of concentrations. Thus, early investigation of the pathological and physiological relevance of GIRK channels was hampered partly by the lack of potent and selective probes. ...
# GIRK2 channel = conditions: ref [2],[16]; cited from earlier work
# From the text: These activators are weak and nonspecific since they exert effects in the millimolar range and target several types of ion channels at the same range of concentrations. Thus, early investigation of the pathological and physiological relevance of GIRK channels was hampered partly by the lack of potent and selective probes. ...
# [1] = cited from earlier work
# From the text: To better understand the potential of activating neuronal GIRK1/2 channels for therapeutic intervention, selective and potent activators have been developed for GIRK channels. […] Howeve ...
# GIRK channels = conditions: ref [3],[38],[46]; cited from earlier work
# From the text: as §1
# mGIRK1/2 [2] = molecular target: T1, mGIRK1/2 (Mus musculus, UniProt P48542+P63250); assay: TEVC, K+ current enhancement through GIRK1/2 expressed in Xenopus oocytes; type: cell-based; conditions: 48 μM AsKC11; heterotetrameric GIRK1/2 in oocytes; mean ± SD, n = 4; data not shown
# T1 construct: expressed in transfected cells; host or cells: Xenopus laevis oocytes injected with cRNA
# T1 sequence (P63250 1-501): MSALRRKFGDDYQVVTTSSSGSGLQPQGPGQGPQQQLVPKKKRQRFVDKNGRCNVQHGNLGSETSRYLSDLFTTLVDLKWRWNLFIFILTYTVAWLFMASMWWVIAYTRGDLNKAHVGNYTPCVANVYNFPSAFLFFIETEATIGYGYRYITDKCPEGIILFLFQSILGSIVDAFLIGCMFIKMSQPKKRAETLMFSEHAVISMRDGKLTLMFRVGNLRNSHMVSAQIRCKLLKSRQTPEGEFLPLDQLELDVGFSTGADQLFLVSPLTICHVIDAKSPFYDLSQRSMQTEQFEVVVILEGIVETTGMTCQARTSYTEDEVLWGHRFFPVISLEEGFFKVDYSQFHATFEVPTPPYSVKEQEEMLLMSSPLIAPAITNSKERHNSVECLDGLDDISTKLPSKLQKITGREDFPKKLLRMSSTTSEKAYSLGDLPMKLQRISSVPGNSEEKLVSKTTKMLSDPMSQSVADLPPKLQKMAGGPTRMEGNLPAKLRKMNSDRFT
# T1 sequence (P48542 1-425): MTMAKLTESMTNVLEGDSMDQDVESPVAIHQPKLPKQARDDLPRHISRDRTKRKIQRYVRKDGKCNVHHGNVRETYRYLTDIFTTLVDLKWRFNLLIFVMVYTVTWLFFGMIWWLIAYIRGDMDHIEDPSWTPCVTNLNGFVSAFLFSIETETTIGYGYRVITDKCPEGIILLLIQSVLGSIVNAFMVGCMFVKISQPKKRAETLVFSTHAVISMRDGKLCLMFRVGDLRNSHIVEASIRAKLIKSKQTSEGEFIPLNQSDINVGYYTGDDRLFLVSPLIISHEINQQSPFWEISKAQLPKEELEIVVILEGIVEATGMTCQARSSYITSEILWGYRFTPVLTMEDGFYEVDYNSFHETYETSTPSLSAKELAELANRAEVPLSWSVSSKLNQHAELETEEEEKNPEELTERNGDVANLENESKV
# From the text: To identify the novel activator of GIRK1/2 channels, we first tested the effects of venom fractions previously purified from the venom of Anemonia sulcata on whole-cell currents in oocytes expressing GIRK1/2 channels. […] The oocytes coinjected with GIRK1/2 cRNA were voltage-clamped at −90 mV. To increase the GIRK current at the negative potential, a high-potassium extracellular buffer (HK) was used, which allowed for more obvious currents and accurate measurement. Thus, after exchanging ND96 to HK, basal K^+ currents (IK,basal) were observed and were carried by GIRK1/2 channels (Figure 1a).
# The potency of AsKC11 to enhance inward K^+ currents through GIRK1/2 channels was studied by applying increasing concentrations of AsKC11 (2.4, 12, 24, and 48 µM) to oocytes expressing GIRK1/2 channels. These oocytes were subjected to a 1-s voltage ramp protocol from −150 to +60 mV from a holding potential of −20 mV.
# All procedures for the use and handling of adult female Xenopus laevis frogs (CRB Xénopes, Rennes, France) were approved by the Animal Ethics Committee of the KU Leuven (Project No. P186/2019) following regulations of the European Union (EU) concerning the welfare of laboratory animals, as declared in Directive 2010/63/EU. […] After recovery from anesthesia, frogs were returned to their tanks in the Aquatic Facility of KU Leuven and were monitored daily. […]
# mGIRK1/2 [3] = molecular target: T1, mGIRK1/2; assay: Kinetics and affinity of AsKC11 on GIRK1/2 channels (wash-in/wash-out, bimolecular scheme); type: cell-based
# From the text: As shown in the abovementioned results, AsKC11 binding was reversible. We next explored whether the AsKC11-elicited activation of GIRK1/2 channels followed a kinetic behavior of a simple bimolecular reaction. The current activation upon AsKC11 application and recovery upon AsKC11 removal followed a single exponential time course compatible with a bimolecular reaction scheme (See Section 4).
# For the expression of potassium channels (hKV1.1, hKV1.2, hKV1.3, rKV1.4, rKV1.6, and mGIRK1/2, mGIRK2 alone, or IRK1) in Xenopus oocytes, the linearized plasmids were transcribed using the T3, T7, or SP6 mMESSAGEmMACHINE transcription kit (Ambion, Austin, TX, USA). Following the cRNA injection into oocytes and 1–4 days of incubation at 16 °C, electrophysiological experiments were conducted using the two-electrode voltage-clamp (TEVC) GeneClamp 500B (Axon Instruments, San Jose, CA, USA). Electrodes were fabricated from borosilicate glass tubes (1.14 mm outside diameter, 0.7 mm inside diameter) by a programmable microelectrode puller, PUL-1 (World Precision Instruments, Sarasota, FL, USA). Electrodes were filled with 3 M KCl and had tip resistances from 0.8 to 1.5 MΩ. […]
# GIRK1/2 channel = molecular target: T2, GIRK1/2 channel (Mus musculus, UniProt P63250); assay: two-electrode voltage clamp kinetics (koff/kon) in Xenopus oocytes
# T2 chain 1: T1 sequence (P63250 1-501)
# T2 chain 2: T1 sequence (P48542 1-425)
molecule,measurement,setting,value
Cc1cc(NC(=O)Nc2ccc(F)c(F)c2)n(-c2ccccc2)n1 [ML297],affinity of activity on GIRK1/2,"GIRK1/2 channels; ref [2],[5],[16]",nanomolar range
same,requirement for GIRK1/2 activation,GIRK1/2 channels; ref [2],"required the presence of the membrane phospholipid phosphatidylinositol 4,5-bisphosphate instead of Gi/o"
same,effect on GIRK2 channel,GIRK2 channel,not affect the GIRK2 channel
same,effects in animal models,"[1]; ref [2],[16]",antiepileptic and anxiolytic effects in animal models
same,pharmacokinetic properties,[1]; ref [2],suboptimal
CCO [ethanol],potency for activating GIRK channels,GIRK channels,very low potency
C[C@@H]1O[C@@H](O[C@H]2[C@H](Oc3cc(O)c4c(c3)O[C@H](c3ccc(O)cc3)CC4=O)O[C@H](CO)[C@@H](O)[C@@H]2O)[C@H](O)[C@H](O)[C@H]1O [naringin],potency for activating GIRK channels,GIRK channels,very low potency
"INKDCLLPKVVGFCRARFPRYYYNSSSRRCEKFIYGGCGGNANNFSSYYECHIKCFGPR (disulfide 5-55, 14-38, 30-51) [AsKC11]","enhancement in inward K+ currents, GIRK1/2",mGIRK1/2 [2],74.1 ± 12.5%
same,koff,"mGIRK1/2 [3]; 48 μM AsKC11, wash-out, read-out: first-order dissociation rate constant (koff = β)",0.00633 s⁻¹
same,kon,"mGIRK1/2 [3]; 48 μM AsKC11, read-out: second-order association rate constant (α)",78.2 M⁻¹ s⁻¹
B1,Kd,GIRK1/2 channel,80.9 µM
